Results published in PMC8459971, “Evaluation of the hepatotoxicity of the novel GPR40 (FFAR1) agonist CPL207280 in the rat and monkey” (PLoS ONE, 2021).
Values joined by “and” are separate entries in the source; they are usually repeats but may differ in a detail not shown here. Equal values may be shown once. Read-outs that look alike come from different tables or passages of the source. Marks after values point to notes of the source that are not given here.

Experiments:
[1] = Stability in cryopreserved hepatocytes, rat; type: in vitro ADME; settings: for Compound Remaining (% of 0 min): Hepatocyte Stability Rat, single replicates
Protocol: (§1) The final incubation volume was 500 μL. Two control compounds (verapamil and donepezil) were included for each microsomal species, along with the appropriate vehicle control. The reactions were terminated by transferring 50 μL of incubate to 100 μL methanol containing an internal standard (metoprolol) at appropriate time points (0, 10, 20, 40, 60, and 120 min for the test compound and 0, 5, 10, 20, 40, and 60 min for the control compounds). The termination plates were centrifuged at 4000 x g at 4°C for 30 min to precipitate the protein. The supernatants were then collected for analysis, and LC-MS/MS was used for detection purposes. The system consisted of an Acquity™ Binary Solvent Manager, Acquity™ 4-position heated column manager, 2777 Ultra High Pressure Autosampler, and a Xevo-TQ MS triple quadrupole mass spectrometer (Waters Ltd., Herts, UK). This process was carried out twice.

[2] = Stability in cryopreserved hepatocytes, dog; type: in vitro ADME; settings: for Compound Remaining (% of 0 min): Hepatocyte Stability Dog, single replicates
Protocol: as §1

[3] = Single-dose pharmacokinetics in monkeys (p.o. and i.v.); type: in vivo, monkey; settings: for bioavailability: p.o. vs i.v., read-out: F (bioavailability)
[4] = Metabolite profiling, monkey hepatocytes; type: in vitro ADME; settings: 10 μM CPL207280, 60 min, ND = not detected
Protocol: Suspensions of cryopreserved human, rat, and monkey hepatocytes were pooled from a minimum of three individuals. All cryopreserved hepatocytes were purchased from a commercial supplier. […] The cell density was 0.5 ×10^6 viable cells/mL. The final DMSO concentration during the incubation was 0.25%. Control incubations were performed in lysed cells to reveal any non-enzymatic degradation. Two control compounds were identified in each species. Samples (50 μL) were removed from the incubation mixture at 0, 10, 20, 40, 60, and 120 min and added to methanol containing an internal standard (100 μL) to stop the reaction. The samples were centrifuged (4000 x g at 4°C for 30 min) and the supernatants at each time point were pooled for analysis by LC MS/MS using Cyprotex generic methods. Following hepatocyte stability assays, the samples were utilized for metabolite profiling. […] Metabolites were characterized using a mass spectrometer comprising Waters Xevo QT of G2-S, Acquity Binary Solvent Manager, Acquity Column Manager, and 2777 Autosampler.

[5] = cited from earlier work
[6] = biological target: BSEP (Homo sapiens, UniProt O95342); test: biochemical
BSEP, sequence (O95342 whole entry): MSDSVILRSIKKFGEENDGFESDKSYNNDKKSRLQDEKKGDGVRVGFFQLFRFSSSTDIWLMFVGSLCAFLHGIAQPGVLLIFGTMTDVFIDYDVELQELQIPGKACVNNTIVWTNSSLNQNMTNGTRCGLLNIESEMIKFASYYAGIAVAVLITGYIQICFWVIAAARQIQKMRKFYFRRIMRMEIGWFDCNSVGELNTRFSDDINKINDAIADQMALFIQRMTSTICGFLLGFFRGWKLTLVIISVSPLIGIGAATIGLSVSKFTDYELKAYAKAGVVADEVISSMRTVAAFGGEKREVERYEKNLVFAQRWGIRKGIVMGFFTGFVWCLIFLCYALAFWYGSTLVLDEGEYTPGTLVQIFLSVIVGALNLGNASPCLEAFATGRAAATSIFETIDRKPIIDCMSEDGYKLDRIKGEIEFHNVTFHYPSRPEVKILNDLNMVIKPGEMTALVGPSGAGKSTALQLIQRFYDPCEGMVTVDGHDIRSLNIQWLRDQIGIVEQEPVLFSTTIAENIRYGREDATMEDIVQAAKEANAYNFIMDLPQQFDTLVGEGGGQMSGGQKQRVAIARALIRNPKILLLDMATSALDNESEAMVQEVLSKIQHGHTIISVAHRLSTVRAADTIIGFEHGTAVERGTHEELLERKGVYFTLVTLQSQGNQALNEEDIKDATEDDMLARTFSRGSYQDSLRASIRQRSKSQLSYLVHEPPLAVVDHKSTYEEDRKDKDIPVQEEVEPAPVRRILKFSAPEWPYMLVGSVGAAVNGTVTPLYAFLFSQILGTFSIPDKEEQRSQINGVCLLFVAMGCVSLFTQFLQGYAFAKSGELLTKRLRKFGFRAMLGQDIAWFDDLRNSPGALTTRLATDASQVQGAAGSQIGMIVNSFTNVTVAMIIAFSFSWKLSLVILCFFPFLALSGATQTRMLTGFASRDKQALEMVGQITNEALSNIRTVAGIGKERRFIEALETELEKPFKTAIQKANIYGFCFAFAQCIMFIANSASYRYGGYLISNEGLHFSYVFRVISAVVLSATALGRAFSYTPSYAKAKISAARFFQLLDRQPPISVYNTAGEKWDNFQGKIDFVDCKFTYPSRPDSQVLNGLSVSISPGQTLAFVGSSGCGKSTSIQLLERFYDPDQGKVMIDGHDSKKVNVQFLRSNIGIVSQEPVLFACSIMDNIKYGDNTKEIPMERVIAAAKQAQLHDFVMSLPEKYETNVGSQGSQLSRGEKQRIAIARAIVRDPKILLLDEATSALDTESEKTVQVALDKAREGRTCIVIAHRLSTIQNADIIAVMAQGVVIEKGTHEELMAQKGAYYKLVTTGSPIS
Protocol: In the vesicular transport inhibition assay (for BSEP, MRP) compounds were incubated with membrane vesicle preparations and the probe substrate. Incubations were carried out in the presence of 4 mM ATP or AMP to distinguish between transporter-mediated uptake and passive diffusion into the vesicles. For MRP2 and MRP3, reactions were carried out in the presence of 2 mM glutathione. Compounds were added to the reaction mixture in 0.75 μL of solvent (1% of the final incubation volume). […] Reactions were initiated by the addition of 25 μL of 12 mM MgATP (or 12 mM AMP in assay buffer as a background control) and preincubated separately. Reactions were quenched by the addition of 200 μL of ice-cold washing buffer and immediate filtration via glass fiber filters mounted on a 96-well plate (filter plate). The filters were washed (5 × 200 μL of ice-cold washing buffer), dried, and the amount of substrate inside the filtered vesicles was determined by liquid scintillation counting.

[7] = cited from earlier work; remark: listed apart in the source
[8] = cited from earlier work; for AUC24h (Mean) / Cmax (Mean): rat; for exposure in plasma (AUC): rats
[9] = test system: hepatocytes; settings: read-out: IC50, hepatocyte toxicity, cited from earlier work
[10] = summary table, literature; cited from earlier work
[11] = cryopreserved hepatocytes (suspension), Rat (Sprague Dawley) hepatocytes, mean n = 2
[12] = cryopreserved hepatocytes (suspension), Dog (Beagle) hepatocytes, mean n = 2
[13] = 14-day toxicology study in rats

## CC#C[C@@H](CC(=O)O)c1ccc(OCC(C)=C(C)C)cc1 [CPL207280]
[1]; 0 min
  Compound Remaining (% of 0 min): 100 % of 0 min
[1]; 10 min
  Compound Remaining (% of 0 min): 101 % of 0 min and 81.5 % of 0 min
[1]; 20 min
  Compound Remaining (% of 0 min): 79.0 % of 0 min and 77.8 % of 0 min
[1]; 40 min
  Compound Remaining (% of 0 min): 77.7 % of 0 min and 66.7 % of 0 min
[1]; 60 min
  Compound Remaining (% of 0 min): 72.8 % of 0 min and 73.3 % of 0 min
[1]; 120 min
  Compound Remaining (% of 0 min): 65.3 % of 0 min and 56.0 % of 0 min
[1]; [11]
  half-life at 3 μM: 186 min
  microsomal CLint at 3 μM: 7.51 µL/min/mg
[2]; 0 min
  Compound Remaining (% of 0 min): 100 % of 0 min
[2]; 10 min
  Compound Remaining (% of 0 min): 93.0 % of 0 min and 92.9 % of 0 min
[2]; 20 min
  Compound Remaining (% of 0 min): 83.6 % of 0 min and 74.9 % of 0 min
[2]; 40 min
  Compound Remaining (% of 0 min): 73.0 % of 0 min and 74.7 % of 0 min
[2]; 60 min
  Compound Remaining (% of 0 min): 61.1 % of 0 min and 62.8 % of 0 min
[2]; 120 min
  Compound Remaining (% of 0 min): 65.2 % of 0 min and 60.1 % of 0 min
[2]; [12]
  half-life at 3 μM: 180 min
  microsomal CLint at 3 μM: 7.76 µL/min/mg
[3]; cynomolgus, monkey, plasma, 6 mg/kg, monkey, dose 6 mg/kg, Day 1, individual animals
  Cmax: 199 ng/mL
[3]; monkey, 0,5 mg/kg i.v., 0.5 h, single animals
  plasma conc: 643.5 and 572.2
[3]; monkey, 0,5 mg/kg i.v., 1 h, single animals
  plasma conc: 149.8 and 119.5
[3]; monkey, 0,5 mg/kg i.v., 2 h, single animals
  plasma conc: 95.2 and 24.4 and 69.6
[3]; monkey, 0,5 mg/kg i.v., 4 h, single animals
  plasma conc: 49.5 and 52.7 and 23.2
[3]; monkey, 0,5 mg/kg i.v., 6 h, single animals
  plasma conc: 17.1 and 41 and 11.9
[3]; monkey, 0,5 mg/kg i.v., 8 h, single animals
  plasma conc: 17.5 and 13.5
[3]; monkey, 0,5 mg/kg i.v., 12 h, single animals
  plasma conc: 6.2 and 10.5 and 4
[3]; monkey, 0,5 mg/kg i.v., 24 h, single animals
  plasma conc: 1.1 and 1.6 and 0
[3]; monkey, 1,5 mg/kg p.o., 0 h, single animals
  plasma conc: 0
[3]; monkey, 1,5 mg/kg p.o., 0.5 h, single animals
  plasma conc: 806.5 and 1491 and 408.8
[3]; monkey, 1,5 mg/kg p.o., 1 h, single animals
  plasma conc: 1309.1 and 1299.9
[3]; monkey, 1,5 mg/kg p.o., 2 h, single animals
  plasma conc: 1251.6 and 605.2 and 1177.7
[3]; monkey, 1,5 mg/kg p.o., 4 h, single animals
  plasma conc: 75.2 and 203.9 and 54.2
[3]; monkey, 1,5 mg/kg p.o., 8 h, single animals
  plasma conc: 31 and 109.7 and 13.2
[3]; monkey, 1,5 mg/kg p.o., 12 h, single animals
  plasma conc: 13.7 and 53.4 and 8.1
[3]; monkey, 1,5 mg/kg p.o., 24 h, single animals
  plasma conc: 1.6 and 5.3 and 0
[3]; monkey, dose 6 mg/kg, Day 1, individual animals, 6 mg/kg
  exposure - AUC: 31225 ng·h/mL and 16287 ng·h/mL
[3]; monkey, plasma, 6 mg/kg, monkey, dose 6 mg/kg, Day 1, individual animals, read-out: exposure - AUC
  AUC: 18200 ng·h/mL
[3]; monkey, plasma, intravenous, 0.5 mg/kg, monkey, 0,5 mg/kg i.v., 0.5 h, single animals, read-out: plasma conc
  concentration at 0.5 h: 704 ng/mL
[3]; monkey, plasma, intravenous, 0.5 mg/kg, monkey, 0,5 mg/kg i.v., 1 h, single animals, read-out: plasma conc
  concentration at 1 h: 198 ng/mL
[3]; monkey, plasma, intravenous, 0.5 mg/kg, monkey, 0,5 mg/kg i.v., 8 h, single animals, read-out: plasma conc
  concentration at 8 h: 10.2 ng/mL
[3]; monkey, plasma, intravenous, monkeys, single dose
  k el: 5.56e-05 s⁻¹
[3]; monkey, plasma, iv, 0.5 mg/kg, monkeys, 0,5 mg/kg i.v., n = 3
  Cmax: 3120 ± 161 ng/mL
[3]; monkey, plasma, iv, 0.5 mg/kg, monkeys, 0,5 mg/kg i.v.
  Tmax: 4.98 min
[3]; monkey, plasma, iv, 0.5 mg/kg, monkeys, 0,5 mg/kg i.v., read-out: AUC
  AUC: 1370 ± 194 ng·h/mL
[3]; monkey, plasma, oral, 1.5 mg/kg, monkey, 1,5 mg/kg p.o., 0 h, single animals, read-out: plasma conc
  concentration at 0 h: 0 ng/mL
[3]; monkey, plasma, oral, 1.5 mg/kg, monkey, 1,5 mg/kg p.o., 1 h, single animals, read-out: plasma conc
  concentration at 1 h: 2250 ng/mL
[3]; monkey, plasma, oral, 1.5 mg/kg, monkeys
  bioavailability: ~99%
[3]; monkey, plasma, po, 1.5 mg/kg, monkeys, 1,5 mg/kg p.o., n = 3
  Cmax: 1680 ± 502 ng/mL
[3]; monkey, plasma, po, 1.5 mg/kg, monkeys, 1,5 mg/kg p.o.
  Tmax: 60 min
[3]; monkey, plasma, po, 1.5 mg/kg, monkeys, 1,5 mg/kg p.o., read-out: AUC
  AUC: 4060 ± 794 ng·h/mL
[3]; monkey, plasma, po, 1.5 mg/kg, monkeys
  bioavailability: 99%
[4]
  monkey % of parent at 60 min: 7.25%

## Cc1cc(OCCCS(C)(=O)=O)cc(C)c1-c1cccc(COc2ccc3c(c2)OC[C@H]3CC(=O)O)c1 [TAK-875, fasiglifam, reference compound]
[5]
  plasma protein binding (PPB): > 99.4%
[6]
  IC50: 47.3 µM
[7]
  long exposure in humans: approximately 30 h
[8]; [13]
  effect on ALT: significantly increased ALT at doses of 200 and 600 mg/kg after seven days
  effect on TBA and T-BIL: increased TBA and T-BIL levels at a dose of 600 mg/kg
[8]; Day 1, Dose 200 mg/kg/day
  AUC24h (Mean): 1210000* ng x hr/mL
  Cmax (Mean): 296000* ng/ml
[8]; Day 1, Dose 600 mg/kg/day
  AUC24h (Mean): 2010000* ng x hr/mL
  Cmax (Mean): 465000* ng/ml
[8]; Day 14, Dose 200 mg/kg/day
  AUC24h (Mean): 3740000* ng x hr/mL
  Cmax (Mean): 271000* ng/ml
[8]; Day 14, Dose 600 mg/kg/day
  AUC24h (Mean): 6610000* ng x hr/mL
  Cmax (Mean): 383000* ng/ml
[8]; 200 mg/kg, day 1
  exposure in plasma (AUC): 1.21 mg·h/mL
[8]; 200 mg/kg, day 14
  exposure in plasma (AUC): 3.74 mg·h/mL
[8]; 600 mg/kg, day 1
  exposure in plasma (AUC): 2.01 mg·h/mL
[8]; 600 mg/kg, day 14
  exposure in plasma (AUC): 6.61 mg·h/mL
[8]; summary table
  Accumulation in rat plasma after repeat dose: Yes
  Propensity to elevate bile acids and bilirubin in plasma: Yes
[9]; time of incubation 24 h
  IC50: 68 µM
[9]; time of incubation 48 h
  IC50: 56 µM
[10]
  Acyl glucuronide presence in human hepatocytes: Yes
